From patent publication US7618978B2, “Amides as BACE inhibitors” (Eli Lilly and Company, priority 2004, dated 2009)
Structures can show the parent of a compound that is named as a salt.

Experiments:
human BACE1(1-460):Fc = biological target: T1, human BACE1(1-460):Fc (Homo sapiens, UniProt P56817); assay: BACE1 mcaFRET Assay; assay type: biochemical; details: FRET substrate 15 micromolar, pH 4.6, 16 to 24 hours at room temperature
T1 construct: made in house; host or cells: HEK293 cells, transient transfection, conditioned medium
T1 sequence (P56817 22-460): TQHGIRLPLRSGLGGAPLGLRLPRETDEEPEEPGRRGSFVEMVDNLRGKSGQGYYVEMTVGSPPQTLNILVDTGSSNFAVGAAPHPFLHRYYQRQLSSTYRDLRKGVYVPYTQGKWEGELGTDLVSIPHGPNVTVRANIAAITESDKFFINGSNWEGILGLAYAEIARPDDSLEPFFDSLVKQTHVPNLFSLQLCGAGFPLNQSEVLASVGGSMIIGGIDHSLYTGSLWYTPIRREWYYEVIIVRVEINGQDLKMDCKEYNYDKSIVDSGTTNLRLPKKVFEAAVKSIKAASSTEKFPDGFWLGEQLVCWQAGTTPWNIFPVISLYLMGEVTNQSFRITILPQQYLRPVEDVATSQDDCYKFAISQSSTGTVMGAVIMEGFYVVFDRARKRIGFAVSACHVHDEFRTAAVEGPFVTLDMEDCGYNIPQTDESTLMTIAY
Experimental: (§1) For in vitro enzymatic and cellular assays, test compounds are prepared in DMSO to make up a 10 millimolar stock solution. The stock solution is serially diluted (in a 1:3, 1:2.5, 1:2, or 1:1 dilution series) in DMSO to obtain a final compound concentration of 10 millimolar to 1 micromolar at the first highest concentration of a ten-point dilution curve in a 96-well round-bottom plate right before conducting the in vitro enzymatic and whole assays.
Serial dilutions of test compounds are prepared as described above. Two microliter of each dilution is added to each well on row A to H of a corresponding low protein binding black plate to which 50 microliter of 50 millimolar ammonium acetate, pH 4.6, 1 mM Triton X-100, 1 mg/ml Bovine Serum Albumin, and 15 micromolar of FRET substrate (sequence: (MCA)-S-E-V-N-L-D-A-E-F-R-K(Dnp)-R-R-R-R-NH2) for BACE1 activity are pre-added. The content is mixed well on a plate shaker for 10 min. Fifty microliter of two hundred picomolar human BACE1(1-460):Fc (See: Vasser, et al., Science, 286, 735-741 (1999)) in the same reaction buffer described above is added to the plate containing substrate and test compounds to initiate the reaction. The relative fluorescence unit (RFU) of the mixture at time 0 is recorded at excitation wavelength 330 nm and emission wavelength 400 nm, after brief mixing on a plate shaker. The reaction plate is covered with aluminum foil and kept in a dark humidified oven at room temperature for 16 to 24 hours. The RFU at the end of incubation is recorded with the same excitation and emission setting. The difference of the RFU at time 0 and the end of incubation represents the activity of BACE1 under the compound-treatment. The 10-point inhibition curve was plotted and fitted with the four-parameter logistic equation to obtain the EC50 and IC50 values. (See: Sinha, et al., Nature, 402, 537-540 (2000)). […] Data for selected compounds of the invention tested in this assay are contained in the following table.
Both human (accession number: AF190725) and murine (accession number: NM_011792) BACE1 were cloned from total brain cDNA by […]. The nucleotide sequences corresponding to amino acid sequences #1 to 460 were inserted into the cDNA encoding human IgG1 (Fc) polypeptide (Vassar et al. 1999). This fusion protein of BACE1(1-460) and human Fc, named huBACE1:Fc, was constructed into the pJB02 vector. Human BACE1(1-460):Fc (huBACE1:Fc) and murine BACE1(1-460):Fc (muBACE1:Fc) were transiently expressed in HEK293 cells. 250 μg cDNA of each construct was mixed with Fugene 6 and added to 1 liter HEK293 cells. Four days after the transfection, conditioned media were harvested for purification. Purification of huBACE1:Fc and muBACE1:Fc.
Conditioned media of […] cell transiently transfected with huBACE1:Fc or muBACE1:Fc cDNA were collected. Cell debris was removed by filtering the conditioned media through 0.22 μm sterile filter. 5 ml Protein A-agarose (bed volume) was added to 4 liter conditioned media. This mixture was gently stirred overnight at […]. The Protein A-agarose resin was collected and packed into a low-pressure chromatography column. The column was washed with 20× bed volumes of PBS at flow rate 20 ml per hour. Bound huBACE1:Fc or muBACE1:Fc protein was eluted with 50 mM acetic acid, pH 3.6, at flow rate 20 ml per hour. […] The purity of final product was assessed by electrophoresis in 4-20% Tris-Glycine SDS-PAGE. […]

beta-secretase activity = biological target: T2, beta-secretase activity (Homo sapiens, UniProt P56817); assay: Whole Cell Assay for Measuring the Inhibition of Beta-Secretase Activity; assay type: cell-based; details: HEK293/APP751sw or HEK293/APP751wt cells, 4 to 6 hours at 37C, Abeta, sAPPbeta-lowering effect by sandwich ELISA
T2 construct: endogenous in cells; host or cells: HEK293p (ATCC CRL-1573) stably expressing human APP751sw or APP751wt
T2 sequence (P56817 46-501): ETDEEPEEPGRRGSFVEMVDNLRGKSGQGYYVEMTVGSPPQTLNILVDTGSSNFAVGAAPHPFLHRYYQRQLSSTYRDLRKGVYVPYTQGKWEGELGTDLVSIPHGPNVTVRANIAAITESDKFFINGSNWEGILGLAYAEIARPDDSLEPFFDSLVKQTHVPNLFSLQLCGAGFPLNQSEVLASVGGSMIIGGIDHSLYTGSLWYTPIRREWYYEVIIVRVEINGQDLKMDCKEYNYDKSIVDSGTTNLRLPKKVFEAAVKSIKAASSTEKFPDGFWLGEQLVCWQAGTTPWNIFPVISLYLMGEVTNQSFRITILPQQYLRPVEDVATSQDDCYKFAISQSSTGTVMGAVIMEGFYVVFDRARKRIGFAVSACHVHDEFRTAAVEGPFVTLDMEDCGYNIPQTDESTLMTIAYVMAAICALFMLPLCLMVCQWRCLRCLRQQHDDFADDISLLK
Experimental: as §1
The routine whole cell assay for the measurement of inhibition of beta-secretase activity utilizes the human embryonic kidney cell line HEK293p (ATCC Accession No. CRL-1573) stably expressing a human APP751 cDNA containing the naturally occurring double mutation […] to Asn651Leu652, commonly called the Swedish mutation (noted HEK293/APP751sw) and shown to overproduce Abeta (Citron et al., 1992, Nature 360:672-674). Human embryonic kidney HEK293p cells stably expressing wild-type human APP751 cDNA (noted HEK293/APP751wt) are also used to assess the inhibition of beta-secretase activity. In vitro Aβ reduction assays have been described in the literature (See: Dovey, et al., Journal of Neurochemistry, 76, 173-181 (2001); Seubert, et al., Nature, 361, 260 (1993); and Johnson-Wood, et al., Proc. Natl. Acad. Sci. USA, 94, 1550-1555 (1997))
Cells (HEK293/APP751sw or HEK293/APP751wt, at 3×10^4 cells/well, containing 200 microliters culture media, DMEM containing 10% FBS) are incubated at 37C for 4 to 6 hours in the presence/absence of inhibitors (diluted in DMSO) at the desired concentration. At the end of the incubation, conditioned media are analyzed for beta-secretase activity, for example, by analysis of cleavage fragments, Abeta peptide and sAPPbeta. Abeta peptides are measured by a sandwich ELISA, using monoclonal 266 as a capture antibody and biotinylated 3D6 as reporting antibody. The sAPPbeta fragments are analyzed by a sandwich ELISA, using monoclonal 8E5 antibody as a capture antibody and rabbit polyclonal 192sw or 192wt as a reporting antibody. Note that sAPPbeta is the cleavage product of full length APP by BACE 1. The concentration of sAPPbeta released in the conditioned media following the compound treatment corresponds to the activity of BACE1 under such conditions. The 10-point inhibition curve was plotted and fitted with the four-parameter logistic equation to obtain the EC50 and IC50 values for the Abeta, sAPPbeta-lowering effect. Data for selected compounds of the invention tested in this assay are contained in the following table.

| Structure (SMILES) | IC50 (human BACE1(1-460):Fc) | IC50 (beta-secretase activity) |
| --- | --- | --- |
| CC(=O)NC(Cc1cc(F)cc(F)c1)C(O)C1CCC(OCc2ccccc2)CN1 [Example 19, N-{(1S,2R)-2-[(5R,2R)-5-Benzyloxy-2-piperidin-2-yl]-1-(3,5-difluoro-benzyl)-2-hydroxy-ethyl}-acetamide hydrochloride] | 13.1 µM | 17.1 µM |
| CC(=O)N[C@@H](Cc1cc(F)cc(F)c1)[C@H](O)[C@H]1CC[C@@H](OCC(C)C)CN1 [Example 58, N-(1S,2R)-{1-(3,5-Difluoro-benzyl)-2-hydroxy-2-[(5R,2R)-5-isobutoxy-piperidin-2-yl]-ethyl}-acetamide hydrochloride] | 6.8 µM |  |
| CCC(C)Nc1cc(C(=O)N[C@@H](Cc2ccccc2)[C@@H](O)[C@H]2CN(C(C)=O)CCN2)cc(N(C)S(C)(=O)=O)n1 (stereo partly drawn) [Example 7, N-[(1S,2R)-2-(R)-(4-Acetylpiperazin-2-yl)-1-benzyl-2-hydroxyethyl]-2-sec-butylamino-6-(methanesulfonyl-methylamino)-isonicotinamide hydrochloride] | 0.003 µM | 0.045 µM |
| CC(=O)N[C@@H](Cc1cc(F)cc(F)c1)[C@H](O)[C@H]1CC[C@@H](OCCC(C)C)CN1 [Example 55, N-(1S, 2R)-{1-(3,5-Difluoro-benzyl)-2-hydroxy-2-[(5R,2R)-5-(3-methyl-butoxy)-piperidin-2-yl]-ethyl}-acetamide hydrochloride] | 6.9 µM | 6.1 µM |
| CCC(C)Nc1cc(C(=O)NC(Cc2ccccc2)C(O)C2NCCN(C)C2=O)cc(N(C)S(C)(=O)=O)n1 [Example 3, N-[1-(S)-Benzyl-2-hydroxy-2-(4-methyl-3-oxopiperazin-2-yl)-ethyl]-2-(S)-sec-butylamino-6-(methylsulfonyl-methylamino)-isonicotinamide hydrochloride] | 0.001 µM | 0.041 µM |
